Assay results from patent US8853219B2, “Compounds and compositions for cognition-enhancement, methods of making, and methods of treating” (NeuroSolis, Inc., priority 2010, dated 2014).

What was measured:
[1] = Immediate release capsules in healthy male volunteers: serum pharmacokinetics, metabolites, cholinergic side effects; format: in vivo, human
Method: A single 5 mg capsule or 5×0.2 mg capsules (1 mg total dose) were administered orally to healthy male volunteer human subjects with 125 ml of water. Six such subjects receiving the 5 mg dose, and a different 6 subjects received the 1 mg dose.
Subjects were monitored, among other things, for typical signs of muscarinic cholinergic action, such as increased salivation, lachrimation and diaphoresis. Venous blood samples were drawn at various intervals after dosing from each subject into standard tubes for bioanalytical and pharmacokinetic analysis. The blood was allowed to clot, and the serum separated, using common clinical laboratory techniques. Serum samples were stored at −20 deg C. until used for analysis.
MCD-386HCl, which exists in serum principally as the protonated form of MCD-386, was assayed in clinical serum samples as follows. 200 μL aliquots of serum samples were spiked with 50.0 μL of diluent for subject samples and QC samples and 50 μL of the appropriate intermediate standard solution for standards. Twenty five microliters (25.0 μL) of working internal standard stock solution and 40.0 μL of 10 N sodium hydroxide was then added and the samples were vortex mixed. Three milliliters (3.00 mL) of ethyl acetate was added followed by 5 minutes of vigorous vortexing and centrifugation. The top organic layer was transferred to a clean tube, evaporated to dryness, and the sample was reconstituted with 100 μL of diluent (0.1% formic acid). A 10 μL aliquot of this reconstituted sample was injected into Phenomenex Synergy 4μ POLAR-RP, 75×2.0 mm (P/N 00C-4336-B0) on a Waters Acuity HPLC LC system, and eluted using a gradient of from 12% to 90% acetonitrile containing 0.1% formic acid/0.1% formic acid in water. The eluant flow of the LC was injected by Turbo Ion Spray (positive ion) into a Sciex API 4000 (Applied Biosystems). The MS/MS transitions monitored were 181.1 m/z to 111.0 m/z for MCD-386HCl and 186.1 m/z to 111.1 m/z for the internal standard, D5-MCD-386HCl. The calibration curve was linear between 0.100 ng/mL and 50.0 ng/mL for MCD-386HCl. The lower limit of quantitation (LLOQ) was 0.100 ng MCD-386HCl per mL of serum. MCD-386HCl concentrations are expressed as free base.
The bioanalytical method for the extraction of metabolites from serum samples entailed adding 450 uL of a 90% acetonitrile+0.1% formic acid solution to 50 uL of the serum samples. The samples were vortexed and centrifuged at 16,000x g at 4° C. for 10 minutes. The supernatants were transferred to 3K molecular weight cut-off (MWCO) spin filters (Pall, Nanosep, #82031-346). Samples were filtered by centrifugation at 13,000×g at 4° C. for 20 minutes. The filtrates were transferred to a 96-well plate and sealed for LC/MS/MS analysis. The system used for this analysis was a Shimadzu Prominence HPLC system. […] The autosampler was maintained at 4° C. Injection volumes for all samples and standards were 40 uL. MRM methods for two possible metabolites were made. An API 3200 triple-quadrupole mass spectrometer with a Turbo V source (Applied Biosystems) was used, following commonly used procedures which would be readily set up by a person skilled in the art of LC-MS/MS. The counts of the characteristic parent and product ions of the free base metabolites were converted to concentration units by comparison with a standard calibration curve.
The bioanalytical results were analyzed using Win Nonlin software and common pharmacokinetic methods known to those skilled in the art.

[2] = Blood and brain concentrations (rats) after oral gavage; format: in vivo, rat
Method: Long-Evans Hooded rats (Charles River: male, 250-350 g) were dosed with solutions of test compounds in PBS by oral gavage. At the desired time after dosing, the animals were anesthetized with isoflurane, and then euthanized by cervical dislocation. Blood was obtained by cardiac puncture, transferred to a 1.5 mL microcentrifuge tube containing 15U Heparin, and the plasma recovered after centrifugation. Brains were dissected, weighed, immediately chilled to 4° C., and homogenized using a PowerGen 125 homogenizer in five volumes of ice-cold 2% formic acid. Proteins were precipitated from plasma and brain homogenate with two and five volumes respectively of ice-cold 2% formic acid and clarified by centrifugation. The supernatant was ultra-filtered by centrifugation through a 3K MWCO spin column (Pall Life Sciences), following the manufacturer's instructions. The concentration of compound in the ultra-filtrate was subjected to reverse-phase liquid chromatography using a 150×2.1 mm Agilent C8 reverse-phase column on a Shimadzu Prominence LC, eluting the compounds with a gradient of 2% to 50% of acetonitrile+0.1% formic acid for compound MI-50,382, or an isocratic flow of 2% acetonitrile+0.1% formic acid for the rest of the compounds listed. The concentration of the compound in the column effluent was measured using an Applied Biosystems API-3200 triple quadrupole mass spectrometer equipped with an electrospray sample injection system. The counts of the characteristic parent and product ions of each test compound were converted to concentration units by comparison with a standard calibration curve.

[3] = molecular target: T1, rat M1 receptors (Rattus norvegicus, UniProt P08482); test: PI turnover (inositol phosphate production) in M1-CHO cells; format: cell-based; details: M1 versus M3 cell lines
T1 construct: host or cells: Chinese Hamster Ovary cells (M1-CHO)
T1 sequence (P08482 1-460): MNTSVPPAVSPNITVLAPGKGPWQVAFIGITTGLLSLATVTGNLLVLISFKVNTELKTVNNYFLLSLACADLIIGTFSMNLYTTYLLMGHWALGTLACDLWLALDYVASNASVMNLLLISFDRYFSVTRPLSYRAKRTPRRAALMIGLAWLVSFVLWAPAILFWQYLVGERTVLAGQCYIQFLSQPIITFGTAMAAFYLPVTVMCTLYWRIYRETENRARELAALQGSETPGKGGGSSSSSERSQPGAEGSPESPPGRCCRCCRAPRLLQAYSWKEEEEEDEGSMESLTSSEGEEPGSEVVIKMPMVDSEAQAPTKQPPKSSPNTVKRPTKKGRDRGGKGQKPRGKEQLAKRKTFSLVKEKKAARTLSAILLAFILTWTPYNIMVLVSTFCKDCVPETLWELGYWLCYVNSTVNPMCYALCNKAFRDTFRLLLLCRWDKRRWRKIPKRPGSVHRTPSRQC
Method: The medium was changed to 70 μL/well of inositol-free DMEM containing 2 mM glutamine, 10% FBS and 10 μCi/ml of [3H]-inositol (PE:cat #NET114A250UC), incubated overnight as above, then 100 μL of a solution of the test compound in HBSS containing 10 mM LiCl and 20 mM HEPES, pH 7.4 was added, incubation was continued for 60 min under the above conditions, and the test was stopped by removing the test compound and replacing with 100 μL of 50 mM formic acid in water at 4° C.

[4] = tested on: rats; test: Salivation after transdermal iontophoretic co-delivery of agonist and antagonist from one patch; format: in vivo, rat; details: anesthetized rats, device with 1 mg Compound 3 plus 0.01 mg antagonist
Method: Experimental compounds and drug substances were delivered transdermally in rats using iontophoresis as follows. The fur was shaved from the backs of Long Evans Hooded rats weighing 225 to 325 grams, using electric clippers. Experimental compounds and drug substances were formulated at suitable concentrations an aqueous mixture of the following composition:
The polyvinyl alcohol/water was heated to 95 degC until it became clear, then the other constituents were added and mixed well. The mixture was introduced into suitable molds containing a disc-shaped cavity 2.2 cm diameter and 2.2 mm deep. Molds may be fabricated using two glass sheets separated by a silicone rubber sheet with suitable sized cavities and filling ports cut-outs. The molds were subject to 3 freeze-thaw cycles at −80 degC and 20 degC until a firm cryogel was obtained. The gels were separated from the molds and trimmed into a circular shape. The gel was placed in a silicone rubber casing with one face in contact with a circular silver foil anodic electrode (22 mm dia/250 microns thick), and the assembly was placed on the shaved skin of the rat such that the other face was in contact with the skin on one side of the back of the rat. The rubber casing formed a seal over and around the gel/electrode assembly. […] This was placed on the other side of the shaved back of the rat, the edges of the gel discs being about 20 mm apart at their nearest point. A DC voltage was applied across the two patches from a constant-current DC power supply and the voltage adjusted to obtain the desired current, such that the skin of the animal completed the electrical circuit.
The devices were placed on shaved backs of anesthetized rats and salivation was measured.
The animals were placed slightly head-down on an inclined, heated ramp. Rectal temperature was monitored using a thermocouple and the temperature of the heating pad was adjusted manually to maintain normal body temperature. Saliva was collected from the mouth by absorption onto pre-weighed slips of filter paper. The filter paper was changed periodically and the amount of saliva was measured by weighing the filter paper slips.

[5] = tested on: inositol phosphate signaling pathway; test: In vivo measurement of tissue inositol phosphate signaling pathway activation (hippocampus, salivary gland); details: rat, Compound 3 1 mg/kg
Method: Experimental compounds or drug substances were administered using standard techniques to Long Evans Hooded rats weighing 225 to 350 grams, and which had been pretreated with a subcutaneous injection of lithium chloride at a suitable dose between 3 and 10 mmoles per kg. At suitable times the animals were briefly anesthetized using 5% isoflurane and euthanized by decapitation. The brains and submaxillary salivary glands were rapidly dissected out, and the hippocampuses were dissected from the brains. The dissected tissues were homogenized in a suitable volume of ice-cold phosphate-buffered saline containing 10 mM lithium chloride, pH7.4, using a tissue homogenizer, and used immediately or frozen in aliquots at −80 degC for future use. The concentration of inositol-1-phosphate was determined in the homogenates using the IPOne TR-FRET assay (CisBio cat no 621PAPEB), following the manufacturer's instruction

| SMILES | Reduction of salivation caused by transdermal iontophoretic delivery of Compound 3 [4] | Block of increase in salivary gland inositol phosphate caused by Compound 3 ([5]; antagonist 0.1 mg/kg) | Block of increase in hippocampal inositol phosphate caused by Compound 3 ([5]; antagonist 0.03 mg/kg) | Block of increase in salivary gland inositol phosphate caused by Compound 3 ([5]; antagonist 0.03 mg/kg) | other results |
| --- | --- | --- | --- | --- | --- |
| CCc1noc(C2CN=CNC2)n1 (stereo not drawn) [MCD-386HCl, 5-(3-ethyl-1,2,4-oxadiazol-5-yl)-1,4,5,6-tetrahydropyrimidine] |  |  |  |  | Observable cholinergic side effects ([1]; 1 mg total dose cohort): none of the subjects in the 1 mg total dose cohort experienced any observable cholinergic side effects; Diaphoresis ([1]; 5 mg cohort): Two of these latter subjects experienced mild, transient diaphoresis that resolved within a short period, and two subjects experienced moderate diaphoresis; Hypersalivation ([1]; 5 mg cohort): One of the latter subjects also experienced mild hypersalivation; Observable cholinergic side effects ([1]; 5 mg cohort): two subjects experienced no observable side effects, and four subjects showed signs of muscarinic cholinergic activity; Main metabolite in serum ([1]; 5 mg dose cohort): identified in the serum samples of five out of six subjects |
| Cl.[2H]C([2H])(C)c1noc(C2CN=CNC2)n1 (stereo not drawn) [compound 6, 3-(1,1-d2-ethyl)-5-(1,4,5,6-tetrahydropyrimidin-5-yl)-1,2,4-oxadiazole hydrochloride] |  |  |  |  | Brain Cmax (10 mg/kg po) 1 hr MCD-386 = 1.00 ([2]; rat brain, 10 mg/kg po, 1 hr, relative to MCD-386): 0.82; Penetration into the brain ([2]; rats after oral dosing): penetrated into the brain; Functional selectivity for M1 subtype by PI turnover [3]: M1-subtype functionally selective muscarinic agonists |
| NC(=O)C(c1ccccc1)(c1ccccc1)[C@@H]1CCN(CCc2ccc3c(c2)CCO3)C1 [darifenacin] | reduced salivation, but were less effective | less effective |  |  |  |
| C[N+]1(C)CCC(OC(=O)C(O)(c2ccccc2)C2CCCC2)C1 (stereo not drawn) [glycopyrrolate] | greatly reduced |  | without blocking | can block |  |
| CCN(CC)CC#CCOC(=O)C(O)(c1ccccc1)C1CCCCC1 (stereo not drawn) [oxybutinin] | reduced salivation, but were less effective | less effective |  |  |  |
| CC(C)[N+](C)(CCOC(=O)C1c2ccccc2Oc2ccccc21)C(C)C [propantheline] | greatly reduced |  | without blocking | can block |  |
